Data published in patent US11980620B2, “Compounds and methods for treatment of Diamond Blackfan anemia” (THE CHILDREN'S MEDICAL CENTER CORPORATION, priority 2017, dated 2024).
“Also recorded” adds a separate entry of the source.

Tests used:
[1] = system: rps29+/- zebrafish with atg5 knockdown; experiment: atg5 morpholino knockdown in rps29+/- zebrafish, hemoglobin staining; type: in vivo; details: 1.6 ng atg5 morpholino; SMER28 1 μM
Description: FIGS. 11A-11C show effect of SMER28 on CD34+ progenitors. (FIG. 11A) Protein levels of LC3-I and LC3-II in control and SMER28 treated mice. GADPH is used as a loading control. […] (FIG. 11C) Atg5 morpholino treatment of rps29^+/− zebrafish.
(FIG. 13A) Induction of autophagy by SMER28 (40 μM) monitored by protein levels of p62, LC3-I, and LC3-II after 24 hours. Cells were also treated with 5-FU (100 nM) to induce autophagy, or inhibitor of transcription actinomycin D (ActD; 100 nM). (FIG. 13B) Induction of autophagy by SMER28 (40 μM) monitored by protein levels of p62, LC3-I, and LC3-II after 24 hours treatment with or without lysosomal blockade with bafilomycin A (200 nM for 4 hours). Untreated samples are shown at higher exposure, to capture dynamic changes in the LC3-II levels. Rapamycin (200 nM) is a positive control. LC3-II levels relative to GAPDH are quantitated on the right. (FIG. 13C) Erythroid differentiation of CD34-5F cells transduced with shRNAs for luciferase (LUC) or ATG5±SMER28. Representative flow plots and quantitation showing the number of erythroid cells induced by SMER28 (10 μM) normalized to DMSO. […] Representative images (left), and quantitation (right) with embryos grouped by high, medium, and low levels of benzidine staining. […]

[2] = system: rps29+/- zebrafish embryos; experiment: Hemoglobin (benzidine) staining in rps29 mutant zebrafish embryos; type: in vivo
Description: (§1) (FIG. 10A) SMER28 rescues RBC output in rps29^+/− zebrafish embryos. The level of hemoglobin in the yolk sac was visualized 40hpf with benzidine staining. Images are representative of the proportion of embryos indicated (of total counted). (FIG. 10B) Quantitation of SMER28 rescue for a range of 0.1-1 μM, with embryos grouped by high, medium, and low levels of hemoglobin staining. (FIG. 10C) Peripheral blood (PB) RBC counts and hematocrit in mice with irradiation-induced anemia. Mice were treated with the PEG400-based vehicle containing DMSO (VEH) (n=11), 1 mg/kg Dex (sodium-phosphate) (n=13), or 10 mg/kg SMER28 (n=9) for 3 weeks, bled, and assessed. Data are combined from 3 independent experiments. (FIG. 10D) Erythroid cells as proportion of the human graft in mice transplanted with DBA CD34-5F progenitors, and treated as in (FIG. 1c). (FIG. 10E) Levels of human engraftment in NSG mouse bone marrow (BM) transplanted with CB CD34^+ cells. Mice were treated with DMSO plus vehicle (VEH) (n=10), 1 mg/kg Dex (sodium-phosphate) (n=6), or 2 mg/kg SMER28 (n=11) for 4 weeks. (FIG. 10F) The proportion of erythroid, myeloid, and lymphoid (B cells) lineages within the human graft in vehicle- and SMER28-treated mice transplanted with CB CD34^+ cells. Only the effect on the erythroid lineage was significant. Data in FIGS. 10E-10G are pooled from 2 independent experiments. […]

[3] = system: mice with irradiation-induced anemia; experiment: Irradiation-induced anemia in mice, peripheral blood RBC counts and hematocrit; type: in vivo, mouse; details: 10 mg/kg, 3 weeks, sub-lethally irradiated mice
Description: as §1

CB CD34+ cells = type: in vivo, NSG mice
Description: (FIG. 10A) SMER28 rescues RBC output in rps29^+/− zebrafish embryos. The level of hemoglobin in the yolk sac was visualized 40hpf with benzidine staining. Images are representative of the proportion of embryos indicated (of total counted). (FIG. 10B) Quantitation of SMER28 rescue for a range of 0.1-1 μM, with embryos grouped by high, medium, and low levels of hemoglobin staining. (FIG. 10C) Peripheral blood (PB) RBC counts and hematocrit in mice with irradiation-induced anemia. Mice were treated with the PEG400-based vehicle containing DMSO (VEH) (n=11), 1 mg/kg Dex (sodium-phosphate) (n=13), or 10 mg/kg SMER28 (n=9) for 3 weeks, bled, and assessed. Data are combined from 3 independent experiments. (FIG. 10D) Erythroid cells as proportion of the human graft in mice transplanted with DBA CD34-5F progenitors, and treated as in (FIG. 1c). (FIG. 10E) Levels of human engraftment in NSG mouse bone marrow (BM) transplanted with CB CD34^+ cells. Mice were treated with DMSO plus vehicle (VEH) (n=10), 1 mg/kg Dex (sodium-phosphate) (n=6), or 2 mg/kg SMER28 (n=11) for 4 weeks. (FIG. 10F) The proportion of erythroid, myeloid, and lymphoid (B cells) lineages within the human graft in vehicle- and SMER28-treated mice transplanted with CB CD34^+ cells. Only the effect on the erythroid lineage was significant. Data in FIGS. 10E-10G are pooled from 2 independent experiments. For all panels, *p<0.05, * *p<0.01.
Drug treatments. SMER28 was purchased from Tocris and diluted in 10 mM aliquots in DMSO. The final concentration for CD34-5F and CB CD34^+erythroid treatments was 0.2-10 μM as indicated in the text. The final concentration for K562 cell treatments was 20-40 μM. Ferric citrate (1-50 μM) and deferoxamine (100-200 μM) (Sigma) were dissolved in PBS and added on days 0-4 of “expansion” culture, and washed off prior to erythroid stage I (days 4-9) differentiation. For in vivo experiments, SMER28 aliquots were diluted in vehicle solution: 30% PEG-400, 5% propylene glycol, and 0.5% Tween-80. Dosing for human xenograft experiments was 2 mg/kg; for mouse models 10-20 mg/kg. Dexamethasone was purchased as Dex-sodium phosphate (DexSP) water-soluble formulation (Santa Cruz), and diluted in PBS vehicle (1 mg/kg). NSG mice were sub-lethally irradiated at 275 rads, and administered 100 μl of drug or vehicle by oral gavage daily.

p21 = p21 levels in CD34+ cells of DBA patient derived erythroid cell population; type: cell-based, human; details: 1.5 μM; in vitro
Source text: Accordingly, in another embodiment, an autophagy activator as disclosed herein can be administered to a subject according to the methods as disclosed herein in an effective dose to decrease the levels of p21 expression in CD34+ cells present in an erythroid cell population obtained from the subject by at least about 1%, at least about 2%, at least about 3%, at least about 5%, at least about 10%, at least about 15%, least about 20%, at least about 30%, at least about 40%, at least about 50%, at least about 60%, at least about 70%, at least about 80%, at least about 90%, at least about 95%, at least about 98%, at least about 99%, or more than 99%, as compared to in the absence of an autophagy activator.

C=CCNc1ncnc2ccc(Br)cc12 [SMER28, 6-Bromo-N-2-propenyl-4-quinazolinam]
rescue of erythropoiesis after atg5 knockdown [1]: abolished
embryos showing high levels of hemoglobin ([2]; 1 μM, 40 hpf, vehicle-treated controls 20%, p<0.05): Over 50%
hemoglobin staining / RBC output in yolk sac ([2]; treated for 40 hpf, benzidine staining): robust increase; also recorded: rescues
hematocrit vs vehicle ([3]; p=0.04): modestly elevated
peripheral blood RBC counts vs vehicle ([3]; p=0.07): modestly elevated
distribution of myeloid and lymphoid lineages in human graft (CB CD34+ cells; 2 mg/kg SMER28 for 4 weeks): did not affect
erythroid contribution to human graft (RBCs as proportion of human graft) (CB CD34+ cells; 2 mg/kg SMER28 for 4 weeks, vehicle 5.5%, p=0.05): 13.0%
human chimerism in bone marrow (CB CD34+ cells; 2 mg/kg for 4 weeks, ns vs vehicle): 25.2%
levels of p21 in CD34+ cells (p21): decreased
